Test results as given in patent US6784178B2, “Pharmacotherapy for vascular dysfunction associated with deficient nitric oxide bioactivity” (Cornell Research Foundation, Inc., priority 2000, dated 2004).

Tests used:
eNOS [1] = target: T1, eNOS (Bos taurus, UniProt P29473); experiment: [3H]tetrahydrobiopterin competition binding to eNOS (96-well filtration plate assay); details: [3H]BH4 10 pmoles, eNOS 3 pmoles, 15 minutes at 22° C., FIG. 1
T1 construct: made in house
T1 sequence (P29473 1-1205): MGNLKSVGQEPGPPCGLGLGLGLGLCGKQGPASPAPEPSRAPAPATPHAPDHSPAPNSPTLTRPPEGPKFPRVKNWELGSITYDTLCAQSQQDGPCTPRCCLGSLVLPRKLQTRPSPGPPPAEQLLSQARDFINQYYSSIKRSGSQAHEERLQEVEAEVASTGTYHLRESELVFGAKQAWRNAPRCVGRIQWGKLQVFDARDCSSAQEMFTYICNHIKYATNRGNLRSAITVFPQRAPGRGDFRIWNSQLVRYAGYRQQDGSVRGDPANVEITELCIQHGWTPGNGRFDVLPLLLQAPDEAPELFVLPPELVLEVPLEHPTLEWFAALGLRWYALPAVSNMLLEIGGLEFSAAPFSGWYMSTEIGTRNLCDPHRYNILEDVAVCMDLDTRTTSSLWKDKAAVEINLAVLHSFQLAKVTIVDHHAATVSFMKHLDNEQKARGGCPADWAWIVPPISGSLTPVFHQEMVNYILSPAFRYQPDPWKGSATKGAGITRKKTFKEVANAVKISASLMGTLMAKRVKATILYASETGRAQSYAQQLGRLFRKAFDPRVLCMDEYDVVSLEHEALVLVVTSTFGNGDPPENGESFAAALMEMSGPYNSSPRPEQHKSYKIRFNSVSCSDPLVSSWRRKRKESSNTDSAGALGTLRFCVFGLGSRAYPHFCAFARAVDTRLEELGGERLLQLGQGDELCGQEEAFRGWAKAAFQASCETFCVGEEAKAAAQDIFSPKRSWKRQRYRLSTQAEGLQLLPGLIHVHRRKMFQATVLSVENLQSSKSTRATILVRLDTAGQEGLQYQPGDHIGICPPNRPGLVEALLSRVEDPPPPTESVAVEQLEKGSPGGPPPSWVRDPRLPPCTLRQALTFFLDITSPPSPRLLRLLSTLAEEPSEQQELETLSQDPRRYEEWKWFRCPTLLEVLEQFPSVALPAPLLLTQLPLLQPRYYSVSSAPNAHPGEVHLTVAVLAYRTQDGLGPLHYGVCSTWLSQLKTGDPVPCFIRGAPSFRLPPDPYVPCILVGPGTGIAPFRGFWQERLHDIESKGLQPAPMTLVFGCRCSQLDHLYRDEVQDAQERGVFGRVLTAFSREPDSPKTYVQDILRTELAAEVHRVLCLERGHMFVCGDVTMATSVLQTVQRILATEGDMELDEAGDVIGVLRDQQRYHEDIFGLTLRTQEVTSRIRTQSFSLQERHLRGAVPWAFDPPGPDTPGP
Description: (§1) The eNOS used in Reference Examples 1, 2, 3 and 4 was made as described in Martasek, P., et al., Biochem. Biophys. Res. Commn 219, 359-365 (1996).
Increasing concentrations of unlabeled pterins were incubated for 15 minutes at 22° C. with [^3]tetrahydrobiopterin ([^3H]BH4), 10 pmoles, and eNOS, 3 pmoles, in binding buffer which is Tris.HCl, pH 7.5, (50 mM), and dithiothreitol (DTT) (1 mM), in a 100 microliter volume in each well in a 96-well filtration plate assay. The pterins used include 5,6,7,8-tetrahydrobiopterin (BH4), 7,8-dihydrobiopterin (BH2), 6-methyltetrahydrobiopterin (6 MePH4) and sepiapterin. Data which are shown in FIG. 1 are mean±SEM values of triplicate determinations. Similar results were obtained in four separate experiments. In FIG. 1, the squares denote BH4 for the naturally occurring (R)-stereoisomer of BH4 and represent BH4, the triangles represent BH2, the diamonds represent 6 MePH4, and the circles represent sepiapterin. In FIG. 1, the term “Inhibitor” in the horizontal legend means pterin analog and is generic for BH4, BH2, 6MePH4 and sepiapterin. Incubations were carried out at the concentrations indicated by the data points in FIG. 1. This experiment is to compare the ability of the named pterins to compete for [^3H]BH4 binding to eNOS.

eNOS [2] = target: T2, eNOS (Bos taurus, UniProt P29473); experiment: EPR (DEPMPO spin-trap) assessment of superoxide production by pterin-bound eNOS; format: biochemical; details: 7 pmol eNOS; BH4 10 μM in buffer; subsequent addition of sepiapterin 50 μM or BH2 1 mM; FIGS. 2(a)-(c)
T2 construct: made in house
Description: as §1
Assay buffer utilized contained HEPES (50 mM, pH 7.4), calcium (0.2 mM), calmodulin (10 μg/ml), NADPH (0.1 mM), L-arginine (0.1 mM), tetrahydrobiopterin (10 μM), DEPMPO (structure shown in upper right of FIG. 2(a)) (50 mM), and diethylenetriamine pentaacetic acid (DTPA) (0.1 mM). Included was 7 pmol eNOS. Incubation was for 15 min at 22° C. Subsequent addition was either of sepiapterin (50 μM) or BH2 (1 mM). The DEPMPO functions as a probe (spin-trap) that selectively captures superoxide anion. Electron paramagnetic resonance (EPR) was carried out to determine superoxide production. EPR was carried out at microwave power of 2 mW, modulation amplitude 1G, time constant 0.128 seconds, scan rate 1.6 G/s, gain 1.25×10E5, number of scans 10.

eNOS [3] = target: T2, eNOS; experiment: Total nitrate/nitrite (Greiss assay) production by BH4- or BH2-bound eNOS from arginine or N-hydroxyarginine; format: biochemical; details: for production of nitric oxide (total nitrate/nitrite) from substrate by BH2-bound eNOS / production of nitric oxide (total nitrate/nitrite) from substrate by BH4-bound eNOS: substrate 100 μM, eNOS 10 pmol, 1 hour at 37° C.; for production of nitric oxide (total nitrate/nitrite) from substrate by BH2-bound eNOS: BH2 10 μM; for production of nitric oxide (total nitrate/nitrite) from substrate by BH4-bound eNOS: BH4 10 μM
Description: as §1
All samples were 100 microliter total volume and contained assay buffer (Tris.HCl pH 7.6 (50 mM), DTT (1 mM), calcium (100 μM), and calmodulin (100 nM)). In the assay buffer, eNOS (10 pmol), either BH4 (10 μM) or BH2 (10 μM), and either L-arginine (100 μM) or N^ω-hydroxy-L-arginine (100 μM) were introduced. In some experiments, the nitric oxide synthase inhibitor N^ω-methyl-L-arginine (NMA, 1 mM) was additionally added or the required NO synthase cofactor calmodulin was omitted (No CaM). Incubations were for 1 hour at 37° C. Total nitrate/nitrite (as a measure of nitric oxide) was measured by the Greiss assay as described in “Methods of Nitric Oxide Research,” edited by Feelisch, M. and Stamler, J. S., John Wiley & Sons Ltd. (1996) at pages 491-497. Results are shown in FIGS. 3(a), 3(b), 3(c) and 3(d). […] Data represent means±SEM values of quadruplicate determinations.

eNOS [4] = target: T2, eNOS; experiment: Concentration dependence of nitric oxide synthesis from N-hydroxyarginine by BH2- or BH4-bound eNOS; format: biochemical; details: eNOS 10 pmol preincubated with BH2 10 μM or BH4 10 μM; 1 hour at 37° C.; FIG. 4
Description: as §1
eNOS (10 pmol) was preincubated for 30 minutes at 37° C. in the presence of either BH2 (10 μM) or BH4 (10 μM) in assay buffer (Tris.HCl pH 7.6 (50 mM), DTT (1 mM), calcium (100 μM) and calmodulin (100 nM)). Then N^ω-hydroxy-L-arginine (denoted “Hydroxyarginine” in FIG. 4) was added (concentrations as disclosed in FIG. 4) and incubations were 100 microliter total volume and were allowed to proceed for 1 hour at 37° C. Nitric oxide production was assessed from accumulation of its stable oxidation products (nitrite and nitrate), quantified by a modified Greiss assay (reference recited in Reference Example 3). Data are mean±SEM values of quadruplicate determinations.

[5] = Example V: chronic oral treatment of man with mild hypertension and coronary artery atherosclerosis; format: in vivo, human; details: oral 5 mg/kg every 4 hours, free drug or with antioxidants/vitamins, with or without L-arginine
Description: He is treated with 5 mg/kg N^ω-hydroxy-L-arginine every 4 hours orally as either free drug or in admixture with antioxidant agents and vitamins (e.g., ascorbate, alpha-tocopherol, vitamin B6, vitamin B12, folate (folic acid), carotenoids, coenzyme Q10, phytoestrogens (including isoflavonoids), selenium, butylated hydroxytoluene (BHT), butylated hydroxyanisole (BHA) and n-3 polyunsaturated fatty acids (PUFA)) with or without L-arginine supplementation (20 mg/kg every 4 hours). The mixture is delivered as a nutriceutical. Blood pressure normalizes to less than 130/80 mm Hg and angiographic evidence indicates atherosclerosis progression is less than 10% additional over the next five years.

[6] = Example IV: chronic oral therapy after stroke; format: in vivo, human; details: oral 5 mg/kg every 4 hours, alone or combined with L-arginine 20 mg/kg every 4 hours
Description: A person suffers from type 2 diabetes (adult onset diabetes or insulin resistant diabetes), coronary artery disease and hypertension (a not uncommon composite of conditions), experiences a stroke resulting in acute left-sided paralysis owing to right middle cerebral artery occlusion. Surviving the stroke, the patient is placed on chronic oral therapy with N^ω-hydroxy-L-arginine, 5 mg/kg every 4 hours, or a combination of this with L-arginine, 20 mg/kg every 4 hours.

[7] = Example III: blood pressure and vascular resistance in hypertensive female; format: in vivo, human; details: single 10 mg/kg intravenous dose, one hour after
Description: A person has moderate hypertension (150/100 mm Hg) and elevated vascular resistance. One hour after receiving a single 10 mg/kg intravenous dose of N^ω-hydroxy-L-arginine, mean arterial blood pressure is diminished by 14 mm Hg and systemic vascular resistance is reduced by 10%.

[8] = Example I: ointment applied to toes of male with Type I diabetes; format: in vivo, human; details: 1% by weight ointment four times a day
From the text: A person with Type I diabetes presents with symptoms of pain in toes and loss of pink color (gray tissue tone) in toes. An ointment containing 1% by weight N^ω-hydroxy-L-arginine is applied to the toes four times a day.

[9] = Example II: treadmill test in male with coronary artery disease; format: in vivo, human; details: oral 10 mg/kg, within 90 minutes after dose; 3 mph, 5% incline; before treatment pain after 10 minutes
Description: A person with coronary artery disease develops chest pain and electrocardiographic evidence of angina after 10 minutes on a treadmill at 3 mph and 5% incline. Within 90 minutes after an oral dose of 10 mg/kg of N^ω-hydroxy-L-arginine, the subject is able to walk on the treadmill at 3 mph and 5% incline for 25 minutes without pain or evidence of […].

C[C@H](O)[C@H](O)C1=Nc2c(nc(N)[nH]c2=O)NC1 [BH2, 7,8-dihydrobiopterin]
affinity of binding to eNOS (competition for [3H]BH4 binding) (eNOS [1]): bind with equal affinity to eNOS
superoxide production by eNOS bound to the pterin (EPR) (eNOS [2]): activate superoxide production

CNC(=N)NCCC[C@H](N)C(=O)O [NMA, N^ω-methyl-L-arginine]
block of arginine conversion to nitric oxide by BH4-bound eNOS (eNOS [3]; NMA 1 mM added, L-arginine 100 μM): > 90%
effect on N-hydroxyarginine conversion to nitric oxide by BH2-bound eNOS (eNOS [3]; NMA 1 mM added, N-hydroxy-L-arginine 100 μM): < 30%

N=C(NO)NCCC[C@H](N)C(=O)O [N^ω-hydroxy-L-arginine]
production of nitrogen oxides (nitrite and nitrate) by eNOS from the substrate (eNOS [4]): supports the production of nitrogen oxides by eNOS in the presence of either BH2 or BH4
atherosclerosis progression (angiographic) over the next five years [5]: less than 10%
blood pressure after treatment ([5]; baseline 140/90 mm Hg): less than 130/80
recurrence of stroke within the next two years [6]: no recurrence of stroke
decrease of mean arterial blood pressure [7]: 14 mm Hg
reduction of systemic vascular resistance [7]: 10%
blood perfusion [8]: Blood perfusion is increased
pain in toes ([8]; within 48 hours): pain diminishes
tissue colour of toes ([8]; within 48 hours): tissue becomes pinker
time able to walk on treadmill without pain or evidence of angina [9]: 25 min
production of nitric oxide (total nitrate/nitrite) from substrate by BH2-bound eNOS (eNOS [3]): does cause production of nitric oxide
production of nitric oxide (total nitrate/nitrite) from substrate by BH4-bound eNOS (eNOS [3]): causes production of nitric oxide

N=C(N)NCCC[C@H](N)C(=O)O [arginine, L-arginine]
production of nitric oxide (total nitrate/nitrite) from substrate by BH2-bound eNOS (eNOS [3]): does not cause production of nitric oxide
production of nitric oxide (total nitrate/nitrite) from substrate by BH4-bound eNOS (eNOS [3]): causes production of nitric oxide

C[C@H](O)C(=O)C1=Nc2c(nc(N)[nH]c2=O)NC1 [sepiapterin]
superoxide production by eNOS bound to the pterin (EPR) (eNOS [2]): will activate superoxide production
